Test results published in patent US9718828B2 (MERCK SHARP & DOHME CORP., priority 2011, dated 2017).
Where a name gives a salt, the structure may show the parent alone.

Target: T1, hBTK (full-length BTK, 6HIS-tag cleaved) (Homo sapiens (Human), UniProt Q06187)
Assay: BTK enzymatic activity, LANCE TR-FRET assay (Assay Method C)
Assay type: biochemical
Details: LANCE TR-FRET, 50 pM hBTK, 25 μM ATP; class 100-1000 is given as ≧100 nM-<1 μM; read-out: IC50 Btk activity values - Assay Method C

T1 sequence (Q06187 whole entry): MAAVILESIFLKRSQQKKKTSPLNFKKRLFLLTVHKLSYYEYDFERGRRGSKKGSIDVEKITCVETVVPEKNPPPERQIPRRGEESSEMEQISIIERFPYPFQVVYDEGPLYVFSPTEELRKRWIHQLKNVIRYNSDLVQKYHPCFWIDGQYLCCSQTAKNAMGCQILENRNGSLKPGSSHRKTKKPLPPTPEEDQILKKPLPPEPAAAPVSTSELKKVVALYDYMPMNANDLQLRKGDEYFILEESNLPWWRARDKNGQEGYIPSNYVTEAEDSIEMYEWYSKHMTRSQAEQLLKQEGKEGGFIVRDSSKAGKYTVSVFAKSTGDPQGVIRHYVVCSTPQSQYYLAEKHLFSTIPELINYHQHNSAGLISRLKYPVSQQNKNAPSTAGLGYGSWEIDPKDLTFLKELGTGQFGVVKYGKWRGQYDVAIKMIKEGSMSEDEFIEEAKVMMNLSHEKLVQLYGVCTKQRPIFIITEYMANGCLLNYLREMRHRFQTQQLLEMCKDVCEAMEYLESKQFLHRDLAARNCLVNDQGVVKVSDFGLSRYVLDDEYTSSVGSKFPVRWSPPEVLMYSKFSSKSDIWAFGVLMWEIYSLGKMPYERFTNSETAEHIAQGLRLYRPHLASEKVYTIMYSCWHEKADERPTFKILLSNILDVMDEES

SMILES	IC50 [nM]
COCCC(=O)N1CCC[C@@H](c2nc(-c3ccc(C(=O)Nc4cc(C(F)(F)F)ccn4)cc3F)c3c(N)nccn23)C1 [Example 576, 4-{8-amino-3-[(3R)-1-(3-methoxypropanoyl)piperidin-3-yl]imidazo[1,5-a]pyrazin-1-yl}-3-fluoro-N-[4-(trifluoromethyl)pyridin-2-yl]benzamide, TFA salt]	< 10

Target: T1, hBTK (full-length BTK, 6HIS-tag cleaved)
Assay: BTK enzymatic activity, IMAP-FP assay (Assay Method B)
Assay type: biochemical
Details: not given
Experimental: BTK enzymatic activity was determined in an IMAP-FP assay (Immobilized Metal ion Affinity-based fluorescence Polarization; Molecular Devices). […] Phosphorylation reactions were allowed to proceed for 120 minutes and were immediately quenched by the addition of 40 μL IMAP detection beads resuspended in IMAP progressive binding buffer (beads were diluted 1:600 in 75% and 25% progressive binding buffer A and B, respectively; Molecular Devices). Plates were read on Packard microplate reader after 60 minutes binding equilibration using Fluorescence Polarization protocol.

SMILES	IC50 [nM]
CCc1ccnc(NC(=O)c2ccc(-c3cn([C@@H]4CCCN(C(=O)C5(C)COC5)C4)c4ncnc(N)c34)cc2)c1 [Example 391, 4-(4-amino-7-{(3R)-1-[(3-methyloxetan-3-yl)carbonyl]piperidin-3-yl}-7H-pyrrolo[2,3-d]pyrimidin-5-yl)-N-(4-ethylpyridin-2-yl)benzamide]	10 to 100

Same assay, conditions: IMAP-FP, 1.05 nM hBTK, 5 μM ATP; class 100-1000 is given as ≧100 nM-<1 μM; read-out: IC50 Btk activity values - Assay Method B

SMILES	IC50 [nM]
CC1(C(=O)N2C[C@H](c3nc(-c4ccc(C(=O)Nc5cc(C(F)(F)F)ccn5)cc4)c4c(N)nccn34)CC(F)(F)C2)COC1 (stereo in doubt) [Example 376, 4-(8-amino-3-{5,5-difluoro-1-[(3-methyloxetan-3-yl)carbonyl]piperidin-3-yl}imidazo[1,5-a]pyrazin-1-yl)-N-[4-(trifluoromethyl)pyridin-2-yl]benzamide]	< 10
C[C@H]1CC[C@@H](c2nc(-c3ccc(C(=O)Nc4ccccn4)cc3)c3c(N)nccn23)CN1C(=O)C1CC1 (stereo in doubt) [Example 394, 4-{8-amino-3-[(3R,6S)-1-(cyclopropylcarbonyl)-6-methylpiperidin-3-yl]imidazo[1,5-a]pyrazin-1-yl}-N-pyridin-2-ylbenzamide]	< 10
C[C@H]1C[C@@H](c2nc(-c3ccc(C(=O)Nc4cc(C(F)(F)F)ccn4)cc3)c3c(N)nccn23)CN(C(=O)C2(C)COC2)C1 [Example 374, 4-(8-amino-3-{(3R,5S)-5-methyl-1-[(3-methyloxetan-3-yl)carbonyl]piperidin-3-yl}imidazo[1,5-a]pyrazin-1-yl)-N-[4-(trifluoromethyl)pyridin-2-yl]benzamide]	< 10
C[C@@H]1C[C@@H](c2nc(-c3ccc(C(=O)Nc4cc(C(F)(F)F)ccn4)cc3)c3c(N)nccn23)CN(C(=O)C2(C)COC2)C1 [Example 375, 4-(8-amino-3-{(3R,5R)-5-methyl-1-[(3-methyloxetan-3-yl)carbonyl]piperidin-3-yl}imidazo[1,5-a]pyrazin-1-yl)-N-[4-(trifluoromethyl)pyridin-2-yl]benzamide]	10 to 100
C[C@@H]1CCN(C(=O)C2(C)COC2)C[C@@H]1c1nc(-c2ccc(C(=O)Nc3cc(C(F)(F)F)ccn3)cc2)c2c(N)nccn12 [Example 377, 4-(8-amino-3-{(3R,4R)-4-methyl-1-[(3-methyloxetan-3-yl)carbonyl]piperidin-3-yl}imidazo[1,5-a]pyrazin-1-yl)-N-[4-(trifluoromethyl)pyridin-2-yl]benzamide]	100 to 1000
C[C@H]1CCN(C(=O)C2(C)COC2)C[C@@H]1c1nc(-c2ccc(C(=O)Nc3cc(C(F)(F)F)ccn3)cc2)c2c(N)nccn12 [Example 378, 4-(8-amino-3-{(3R,4S)-4-methyl-1-[(3-methyloxetan-3-yl)carbonyl]piperidin-3-yl}imidazo[1,5-a]pyrazin-1-yl)-N-[4-(trifluoromethyl)pyridin-2-yl]benzamide]	10 to 100
C[C@@H]1[C@H](c2nc(-c3ccc(C(=O)Nc4cc(C(F)(F)F)ccn4)cc3)c3c(N)nccn23)CCCN1C(=O)C1(C)COC1 [Example 379, 4-(8-amino-3-{(2R,3R)-2-methyl-1-[(3-methyloxetan-3-yl)carbonyl]piperidin-3-yl}imidazo[1,5-a]pyrazin-1-yl)-N-[4-(trifluoromethyl)pyridin-2-yl]benzamide]	< 10
C[C@H]1[C@H](c2nc(-c3ccc(C(=O)Nc4cc(C(F)(F)F)ccn4)cc3)c3c(N)nccn23)CCCN1C(=O)C1(C)COC1 [Example 380, 4-(8-amino-3-{(2S,3R)-2-methyl-1-[(3-methyloxetan-3-yl)carbonyl]piperidin-3-yl}imidazo[1,5-a]pyrazin-1-yl)-N-[4-(trifluoromethyl)pyridin-2-yl]benzamide]	10 to 100
CC1(C(=O)N2CCC[C@@H](n3cc(-c4ccc(C(=O)Nc5cc(C(F)(F)F)ccn5)cc4)c4c(N)ncnc43)C2)COC1 [Example 389, 4-(4-amino-7-{(3R)-1-[(3-methyloxetan-3-yl)carbonyl]piperidin-3-yl}-7H-pyrrolo[2,3-d]pyrimidin-5-yl)-N-[4-(trifluoromethyl)pyridin-2-yl]benzamide]	< 10
CC1(C(=O)N2CCC[C@@H](n3cc(-c4ccc(C(=O)Nc5cc(C#N)ccn5)cc4)c4c(N)ncnc43)C2)COC1 [Example 390, 4-(4-amino-7-{(3R)-1-[(3-methyloxetan-3-yl)carbonyl]piperidin-3-yl}-7H-pyrrolo[2,3-d]pyrimidin-5-yl)-N-(4-cyanopyridin-2-yl)benzamide]	10 to 100
COc1cc(C(=O)Nc2cc(C(F)(F)F)ccn2)ccc1-c1nc([C@@H]2CC[C@H](C)N(C(=O)C3(C)COC3)C2)n2ccnc(N)c12 [Example 401, 4-(8-amino-3-{(3R,6S)-6-methyl-1-[(3-methyloxetan-3-yl)carbonyl]piperidin-3-yl}imidazo[1,5-a]pyrazin-1-yl)-3-methoxy-N-[4-(trifluoromethyl)pyridin-2-yl]benzamide]	< 10
Cc1ccnc(NC(=O)c2ccc(-c3nc([C@@H]4CC[C@H](C)N(C(=O)C5(C)COC5)C4)n4ccnc(N)c34)cc2)c1 [Example 402, 4-(8-amino-3-{(3R,6S)-6-methyl-1-[(3-methyloxetan-3-yl)carbonyl]piperidin-3-yl}imidazo[1,5-a]pyrazin-1-yl)-N-(4-methylpyridin-2-yl)benzamide]	< 10
COc1ccnc(NC(=O)c2ccc(-c3nc([C@@H]4CC[C@H](C)N(C(=O)C5(C)COC5)C4)n4ccnc(N)c34)cc2)c1 [Example 403, 4-(8-amino-3-{(3R,6S)-6-methyl-1-[(3-methyloxetan-3-yl)carbonyl]piperidin-3-yl}imidazo[1,5-a]pyrazin-1-yl)-N-(4-methoxypyridin-2-yl)benzamide]	< 10
CCOc1ccnc(NC(=O)c2ccc(-c3nc([C@@H]4CC[C@H](C)N(C(=O)C5(C)COC5)C4)n4ccnc(N)c34)cc2)c1 [Example 404, 4-(8-amino-3-{(3R,6S)-6-methyl-1-[(3-methyloxetan-3-yl)carbonyl]piperidin-3-yl}imidazo[1,5-a]pyrazin-1-yl)-N-(4-ethoxypyridin-2-yl)benzamide]	< 10
C[C@@H]1CC[C@@H](c2nc(-c3ccc(C(=O)Nc4cc(C(F)(F)F)ccn4)cc3)c3c(N)nccn23)CN1C(=O)C1(C)COC1 [Example 405, 4-(8-amino-3-{(3R,6R)-6-methyl-1-[(3-methyloxetan-3-yl)carbonyl]piperidin-3-yl}imidazo[1,5-a]pyrazin-1-yl)-N-[4-(trifluoromethyl)pyridin-2-yl]benzamide]	100 to 1000
CCN1C[C@@H](c2nc(-c3ccc(C(=O)Nc4cc(C(F)(F)F)ccn4)cc3)c3c(N)nccn23)CC[C@@H]1C(F)(F)F [Example 406, 4-{8-amino-3-[(3S,6R)-1-ethyl-6-(trifluoromethyl)piperidin-3-yl]imidazo[1,5-a]pyrazin-1-yl}-N-[4-(trifluoromethyl)pyridin-2-yl]benzamide]	10 to 100
